Patent US7223795B2, “Modified peptide derivatives and methods of use thereof” (Cyclacel Limited, priority 2000, dated 2007)
Read-outs that look alike come from different tables or passages of the source.

Tests used:
Cyp-A = Cyp-A (Homo sapiens, UniProt P62937); experiment: PPIase activity, α-chymotrypsin-coupled enzymatic assay; assay type: biochemical; conditions: 4° C., read-out: Kd determined by PPIase assay
Description: (§1) PPIase activity is assessed with the α-chymotrypsin-coupled enzymatic assay [Determination of kinetic constants for peptidyl cis-trans isomerase by an improved spectrophotometric assay (1 991); Kofron J L, Kuzmic P, Kishore V, Colon-Bonilla E and Rich D., Biochemistry 30, 6127–6134]. α-Chymotrypsin selectively hydrolyses the C-terminal p-nitroanilide bond of the substrate in the trans X-Pro conformer only. This hydrolysis releases a chromophore 4-nitroaniline, the accumulation of which is recorded by measuring the absorbance at 400 nm as a function of time. […] Substrate (stock solution of 100 mM) was dissolved in LiCl/TFE. The experiment took place at 4° C. Constant temperature was maintained within the cuvette by a Peltier (PTP-1) temperature control unit. A mini magnetic stirring system (telemoduel from Variomag)) was used for mixing the solution in the cuvette after the addition of the substrate. A Perkin Elmer UV/VIS Lambda 20 spectrophotometer was used.
The following materials were used: • Substrate: […] (Bachem AG) (N-succinyl-Ala-Ala-Pro-Phe-pnitroanilide) • Proteins: Cyp-A solution was freshly prepared before the experiment from frozen stock solution, at the appropriate concentration by dilution in buffer 50 mM Hepes, 100 mM NaCl pH=8.0. α-chymotrypsin (Sigma)
In a typical experiment 90 μl of 2.5–30 nM cyclophilin was made up to 2520 μl with buffer A in a 3 ml glass cuvette. The cuvette then was preincubated for 30 min on ice. Immediately before the assay, 300 μl of chymotrypsin solution (50 mg/ml in 10 mM HCl) was added, followed by 90 μl of a 3.7 mM stock solution of Suc-Ala-Ala-Pro-PNA in LiCl (470 mM)/TFE. The reaction progress was monitored by the absorbance change at 400 nm that accompanies the hydrolysis of the amide bond and the release of 4-nitroaniline product.

cyclophilin D = cyclophilin D (Homo sapiens, UniProt P30405); experiment: Rotamase activity (method of Kofron et al); assay type: biochemical
Description: as §1, with “used. […]” for “used.”

cyclophilin = cyclophilin (Homo sapiens, UniProt P62937); experiment: Binding studies, binding constant to cyclophilin
Cyp-D Wild-type = Cyp-D Wild-type (Homo sapiens, UniProt P30405); experiment: Fluorescence titration: interaction with Cyclophilin D; assay type: binding
Description: Fluorescence Assay: Interaction with Cyclophilin D
Further fluorescence titration studies were undertaken to investigate the interaction of selected compounds of the invention with cyclophilin D. The assay was carried out in accordance with the method described in Maurice R. Eftink and Camillo A. Ghiron, [Fluorescence Quenching Studies with Proteins, Analytical Biochemistry 114, 199–227 (1981)].

Cyclophilin A = Cyclophilin A (Homo sapiens, UniProt P62937); experiment: Fluorescence assay: interaction with Cyclophilin A (dissociation constant); assay type: binding; conditions: 20° C., read-out: Kd determined by fluorescence assay
Description: In each case, the binding constant was measured by means of a fluorescence assay, for example as disclosed by Husi, H. and Zurini, M. G. M. [Comparative binding studies of cyclophilins to cyclosporin-A and derivatives by fluorescence measurements, Analytical Biochemistry, 1994, 222, 251–255].
Fluorescence Assay: Interaction with Cyclophilin A
The dissociation constant (Kd) for a number of ligands has been was obtained by fluorescence measurements. Cyclophilin A has only one tryptophan, located about 8 Å from the centre of the active site making a hydrogen bond to the inhibitor cyclosporin when bound. After each addition of ligand, the portion of the protein bound is proportional to the fractional fluorescence change. Measurements were carried out using a Perkin Elmer LS50B fluorescence spectrophotometer. The experiments took place at 20° C. Constant temperature was maintained within the cuvette by a temperature control. The protein solution was equilibrated until the signal was stable. A 1.4 ml fluorescence cuvette was used (Hellma 6140F). The excitation wavelength was 280 nm and the emission wavelength was varied from 330 to 345 nm according to protein and ligand. Emission and excitation slits varied from 2.5 to 10 nm, determined by experimental parameters.
At this point the concentration of the bound ligand equals the free protein. For each ligand concentration one fluorescence value was measured, and at the same concentrations a reference emission value was taken. The difference between the two values was calculated and a new corrected value was used to determine the Kd graphically.
Cyp-A solutions of […] in 50 mMTris, 100 mM NaCl, pH=7.4 were used. Protein concentration varied according to the ligand under test.

Sequence of Cyclophilin A (P62937 whole entry): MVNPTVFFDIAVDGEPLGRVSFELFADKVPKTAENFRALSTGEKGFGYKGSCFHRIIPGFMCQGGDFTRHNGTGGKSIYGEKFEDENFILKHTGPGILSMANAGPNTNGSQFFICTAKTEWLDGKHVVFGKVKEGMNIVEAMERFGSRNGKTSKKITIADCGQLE
Sequence of Cyp-A (P62937 whole entry): as above
Sequence of Cyp-D Wild-type (P30405 30-207): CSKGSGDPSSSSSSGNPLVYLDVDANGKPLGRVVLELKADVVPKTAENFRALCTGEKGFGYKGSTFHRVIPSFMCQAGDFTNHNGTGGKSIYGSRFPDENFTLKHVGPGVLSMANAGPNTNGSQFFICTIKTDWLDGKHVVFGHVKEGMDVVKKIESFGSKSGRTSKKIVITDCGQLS
Sequence of cyclophilin D (P30405 30-207): as above
Sequence of cyclophilin (P62937 whole entry): as the sequence (P62937 whole entry) above

## CC1C(=O)CC(=O)CC1(C)C (racemic) [EM 4/33/1]
Cyp-A
  Kd: 134 µM

## CC(C)[C@H](NC(=O)OCc1ccccc1)C(=O)OC1=CC(=O)CC(C)(C)C1 [EM 2/34, 3-(N-benzyloxycarbonyl-L-valinyloxy)-5,5-dimethyl-2-cyclohexen-1-one]
Cyclophilin D; 50 μM
  Rotamase activity % Control: 81 % Control
Cyclophilin D; 100 μM
  Rotamase activity % Control: 80 % Control
Cyclophilin D; 200 μM
  Rotamase activity % Control: 33 % Control
cyclophilin
  Kd: ~1 µM
Cyp-A
  Kd: 23 µM
Cyp-D Wild-type
  Kd: 347 µM

## COC(=O)[C@H](Cc1ccccc1)NC(=C1C(=O)CC(C)(C)CC1=O)C(NC(=O)OCc1ccccc1)C(C)C (stereo partly drawn) [EM 2/40, N-[1-(4,4-dimethyl-2,6-dioxocyclohexylidene)-2-benzyloxycarbonylamino-3-methylbutyl]phenylalanine methyl ester]
Cyclophilin D; 50 μM
  Rotamase activity % Control: 96 % Control
Cyclophilin D; 100 μM
  Rotamase activity % Control: 100 % Control
Cyclophilin D; 200 μM
  Rotamase activity % Control: 59 % Control
Cyp-D Wild-type
  Kd: 110 µM
Cyclophilin A
  Kd: > 25000 µM

## CC(C)C(NC(=O)OCc1ccccc1)C(O)=C1C(=O)CC(C)(C)CC1=O (stereo not drawn) [EM 3/11/1, 1-(4,4-dimethyl-2,6-dioxocyclohexylidene)-2-benzyloxycarbonylamino-3-methylbutanol]
Cyclophilin D; 50 μM
  Rotamase activity % Control: 109 % Control
Cyclophilin D; 100 μM
  Rotamase activity % Control: 102.5 % Control
Cyclophilin D; 200 μM
  Rotamase activity % Control: 61 % Control
Cyp-D Wild-type
  Kd: 203 µM
Cyclophilin A
  Kd: > 25000 µM

## COC(=O)[C@@H](NC1=CC(=O)CC(C)(C)C1)C(C)C [EM 3/22/1]
Cyclophilin D; 50 μM
  Rotamase activity % Control: 110 % Control
Cyclophilin D; 100 μM
  Rotamase activity % Control: 102 % Control
Cyclophilin D; 200 μM
  Rotamase activity % Control: 63 % Control
Cyp-D Wild-type
  Kd: 103 µM
Cyclophilin A
  Kd: > 25000 µM

## CC1(C)CC(=O)C=C(OC(=O)[C@H](Cc2ccccc2)NC(=O)OCc2ccccc2)C1 [EM 3/26/1/2]
Cyclophilin D; 50 μM
  Rotamase activity % Control: 83 % Control
Cyclophilin D; 100 μM
  Rotamase activity % Control: 72.5 % Control
Cyclophilin D; 200 μM
  Rotamase activity % Control: 33 % Control
Cyp-D Wild-type
  Kd: 154 µM
Cyclophilin A
  Kd: > 25000 µM

## CC(C)C[C@H](NC(=O)OCc1ccccc1)C(=O)OC1=CC(=O)CC(C)(C)C1 [EM 3/26/2/5, 3-(N-benzyloxycarbonyl-L-leucinyloxy)-5,5-dimethyl-2-cyclohexen-1-one]
Cyclophilin D; 50 μM
  Rotamase activity % Control: 79 % Control
Cyclophilin D; 100 μM
  Rotamase activity % Control: 78 % Control
Cyclophilin D; 200 μM
  Rotamase activity % Control: 52 % Control
Cyp-D Wild-type
  Kd: 116 µM

## COC(=O)[C@@H](NC(=O)OCc1ccccc1)C(C)C [EM 3/27]
Cyclophilin D; 50 μM
  Rotamase activity % Control: 111 % Control
Cyclophilin D; 100 μM
  Rotamase activity % Control: 96 % Control
Cyclophilin D; 200 μM
  Rotamase activity % Control: 60 % Control

## CC(C)[C@H](NC(=O)OC(C)(C)C)C(=O)OC1=CC(=O)CC(C)(C)C1 [EM 3/29/1/1]
Cyclophilin D; 50 μM
  Rotamase activity % Control: 107 % Control
Cyclophilin D; 100 μM
  Rotamase activity % Control: 77.5 % Control
Cyclophilin D; 200 μM
  Rotamase activity % Control: 50 % Control
Cyp-D Wild-type
  Kd: 362 µM

## CC(C)COC(=O)OC1=CC(=O)CC(C)(C)C1 [EM 3/48/2/1]
Cyclophilin A
  Kd: 130 µM

## CC(C)[C@H](NC(=O)OCc1ccccc1)C(=O)OC1=CC(=O)C(C)C(C)(C)C1 (stereo partly drawn) [EM 4/10/1]
Cyclophilin D; 50 μM
  Rotamase activity % Control: 78 % Control
Cyclophilin D; 100 μM
  Rotamase activity % Control: 84.5 % Control
Cyclophilin D; 200 μM
  Rotamase activity % Control: 60 % Control
Cyp-A
  Kd: 20 µM
Cyp-D Wild-type
  Kd: 815 µM

## CC1(C)CC(=O)C=C(N)C1 [EM 4/12/2]
Cyclophilin D; 50 μM
  Rotamase activity % Control: 104 % Control
Cyclophilin D; 100 μM
  Rotamase activity % Control: 106.5 % Control
Cyclophilin D; 200 μM
  Rotamase activity % Control: 98 % Control
Cyp-D Wild-type
  Kd: 107 µM

## COC(=O)N[C@H](C(=O)OC1=CC(=O)CC(C)(C)C1)C(C)C [EM 4/18/1]
Cyclophilin A
  Kd: 70 µM

## CC(C)[C@H](NC(=O)OCc1ccccc1)C(=O)OC1=CC(=O)C(C)(C)C(C)(C)C1 [EM 4/21/1]
Cyclophilin A
  Kd: 68 µM

## COC(=O)CC1C(=O)CC(=O)CC1(C)C (stereo not drawn) [EM 4/35/1/1]
Cyclophilin A
  Kd: 45 µM

## CC1(C)CC(=O)CC(=O)C1Cc1ccccc1 (stereo not drawn) [EM 5/11]
Cyclophilin D; 50 μM
  Rotamase activity % Control: 84 % Control
Cyclophilin D; 100 μM
  Rotamase activity % Control: 99 % Control
Cyclophilin D; 200 μM
  Rotamase activity % Control: 71 % Control
Cyp-D Wild-type
  Kd: 170 µM

## CC1(C)CC(=O)CC(=O)C1C/C=C/c1ccccc1 (stereo not drawn) [EM 5/12/3]
Cyclophilin A
  Kd: 85 µM

## CC1(C)CC(=O)CC(=O)C1 [dimedone, reference compound]
cyclophilin; read-out: binding constant (Kd) to cyclophilin, by way of comparison
  Kd: 22000 µM
